Data as given in ChEMBL document CHEMBL4011592, “Synthesis and evaluation of 7-substituted-5,6-dihydrobenzo[c]acridine derivatives as new c-KIT promoter G-quadruplex binding ligands” (Eur J Med Chem, 2017).
Activity calls are given as the source filed them. The calls are words filed in the database; no cut-off is given here.

Legend:
[1] = Binding affinity to F10T duplex DNA (unknown origin) assessed as change in melting temperature at 1 uM by FRET assay
[2] = Binding affinity to biotinylated duplex DNA (unknown origin) by SPR assay
[3] = system: HeLa; experiment: Cytotoxicity against human HeLa cells after 48 hrs by MTT assay; type: functional, cell-based
[4] = Binding affinity to 5'-FAM/3'-TAMARA labelled c-KIT1 G-quadruplex DNA (unknown origin) assessed as change in melting temperature at 1 uM by FRET assay
[5] = Binding affinity to F10T duplex DNA (unknown origin) assessed as change in melting temperature at 2 uM by FRET assay
[6] = Binding affinity to 5'-FAM/3'-TAMARA labelled c-KIT2 G-quadruplex DNA (unknown origin) assessed as change in melting temperature at 1 uM by FRET assay
[7] = system: K562; experiment: Cytotoxicity against human K562 cells after 48 hrs by MTT assay; type: functional, cell-based; conditions: K562, 48 h
[8] = Binding affinity to biotinylated c-KIT1 G-quadruplex DNA (unknown origin) by SPR assay
[9] = system: A549; experiment: Cytotoxicity against human A549 cells after 48 hrs by MTT assay; type: functional, cell-based; conditions: A549, 48 h
[10] = system: BJ; experiment: Cytotoxicity against human BJ cells after 48 hrs by MTT assay; type: cell-based
[11] = Binding affinity to 5'-FAM/3'-TAMARA labelled c-KIT1 G-quadruplex DNA (unknown origin) assessed as change in melting temperature at 2 uM by FRET assay
[12] = Selectivity ratio of Kd for biotinylated duplex DNA (unknown origin) to Kd for biotinylated c-KIT1 G-quadruplex DNA (unknown origin)
[13] = Binding affinity to 5'-FAM/3'-TAMARA labelled c-KIT1 G-quadruplex DNA (unknown origin) assessed as change in melting temperature at 2 uM in presence ds26 DNA by FRET assay
[14] = Binding affinity to c-KIT1 G-quadruplex DNA (unknown origin) assessed as hyperchromicity at 10 uM measured after 10 mins by UV-vis spectroscopic method
[15] = Binding affinity to c-KIT1 G-quadruplex DNA (unknown origin) assessed as red shift at 10 uM measured after 10 mins by UV-vis spectroscopic method
[16] = Binding affinity to c-KIT1 G-quadruplex DNA (unknown origin) assessed as 1:1 binding stoichiometry between compound and G-quadruplex DNA by Job's plot method
[17] = Binding affinity to c-KIT2 G-quadruplex DNA (unknown origin) assessed as ability to promote c-KIT G-rich sequences to form parallel G-quadruplex at 25 uM in absence of KCl measured after 10 mins by CD-spectroscopic analysis
[18] = Binding affinity to c-KIT1 G-quadruplex DNA (unknown origin) measured after 10 mins by UV-vis spectroscopic method
[19] = Binding affinity to c-KIT1 G-quadruplex DNA (unknown origin) assessed as hyperchromicity at 5 uM measured after 10 mins by fluorescence spectroscopic method
[20] = Binding affinity to c-KIT1 G-quadruplex DNA (unknown origin) assessed as 1:1 binding stoichiometry between compound and G-quadruplex DNA 10 uM by ESI-MS spectra analysis
[21] = Binding affinity to c-KIT2 G-quadruplex DNA (unknown origin) assessed as maintainance of parallel c-KIT G-quadruplex conformation at 5 uM in presence of KCl measured after 10 mins by CD-spectroscopic analysis
[22] = Binding affinity to c-KIT1 G-quadruplex DNA (unknown origin) assessed as ability to promote c-KIT G-rich sequences to form parallel G-quadruplex at 25 uM in absence of KCl measured after 10 mins by CD-spectroscopic analysis
[23] = Binding affinity to c-KIT1 G-quadruplex DNA (unknown origin) assessed as isosbestic point at 10 uM measured after 10 mins by UV-vis spectroscopic method
[24] = Binding affinity to c-KIT1 G-quadruplex DNA (unknown origin) assessed as maintainance of parallel c-KIT G-quadruplex conformation at 5 uM in presence of KCl measured after 10 mins by CD-spectroscopic analysis

Row | SMILES | ΔTm [1] | Kd [2] | ΔTm [4] | ΔTm [5] | ΔTm [6] | Kd [8] | ΔTm [11] | Selectivity ratio [12] | Activity [13] | IC50 [3] | IC50 [7] | IC50 [9] | IC50 [10] | further results
1 | COc1cc2c(cc1OC)-c1nc3ccccc3c(Cl)c1CC2 | 0.7 °C | > 20 µM | 0.1 °C | 0.1 °C | 0.1 °C | > 20 µM | 0.2 °C | – | – | – | – | – | – | –
2 | CCN(CC)CCCNc1c2c([n+](C)c3ccccc13)-c1cc(OC)c(OC)cc1CC2 | 0.9 °C | > 20 µM | 7.5 °C | 0.4 °C | 3.6 °C | 7.4 µM | 10.8 °C | > 2.7 | Active | > 50 µM | 37.1 µM | > 50 µM | > 50 µM | Activity [14]: Active; Activity [15]: Active; Activity [16]: Active; Activity [17]: Active; Kd [18]: 9.1 µM; Activity [19]: Active; Activity [20]: Active; Activity [21]: Active; Activity [22]: Active; Activity [23]: Active; Activity [24]: Active
3 | COc1cc2c(cc1OC)-c1nc3ccccc3c(NCCCN3CCCC3)c1CC2 | 1.1 °C | > 20 µM | 10.8 °C | 2.9 °C | 8.6 °C | 2.9 µM | 20.5 °C | > 6.9 | Active | 4.3 µM | 4.2 µM | 3.9 µM | 6.7 µM | –
4 | COc1cc2c(cc1OC)-c1nc3ccccc3c(NCCCN3CCN(C)CC3)c1CC2 | 1.3 °C | > 20 µM | 18.7 °C | 1.6 °C | 8.6 °C | 2.8 µM | 22.9 °C | > 7.1 | Active | 9.6 µM | 4.2 µM | 6.4 µM | 13.7 µM | –
5 | COc1cc2c(cc1OC)-c1c(cc3c(OCCCN4CCCCC4)c(OC)ccc3[n+]1C)CC2 | 0.2 °C | > 20 µM | 4.4 °C | 0.7 °C | 4.4 °C | 2.8 µM | 12.2 °C | > 7.1 | Active | – | – | – | – | –
6 | COc1cc2c(cc1OC)-c1nc3ccccc3c(NCCN3CCCCC3)c1CC2 | 0.1 °C | > 20 µM | 4.7 °C | 0.2 °C | 2.6 °C | 7.8 µM | 7.8 °C | > 2.6 | Active | 39.7 µM | 13.1 µM | 18.5 µM | > 50 µM | –
7 | CCN(CC)CCNc1c2c([n+](C)c3ccccc13)-c1cc(OC)c(OC)cc1CC2 | 0.9 °C | > 20 µM | 8.5 °C | 0.5 °C | 3.3 °C | 3.9 µM | 10.3 °C | > 5.1 | Active | > 50 µM | 24.9 µM | > 50 µM | > 50 µM | –
8 | COc1cc2c(cc1OC)-c1nc3ccccc3c(NCCCN3CCCCC3)c1CC2 | 1.4 °C | > 20 µM | 11.6 °C | 2.1 °C | 8.1 °C | 3.9 µM | 20.2 °C | > 5.1 | Active | 9.9 µM | 3.9 µM | 4.4 µM | 12.3 µM | –
9 | COc1cc2c(cc1OC)-c1nc3ccccc3c(C(=O)NCCN3CCCC3)c1CC2 | 0.1 °C | > 20 µM | 2.2 °C | 0.6 °C | 0.6 °C | > 20 µM | 3.4 °C | – | – | > 50 µM | > 50 µM | > 50 µM | > 50 µM | –
10 | COc1cc2c(cc1OC)-c1c(c(NCCN3CCCC3)c3ccccc3[n+]1C)CC2 | 0.9 °C | > 20 µM | 7.7 °C | 0.4 °C | 3.7 °C | 2.2 µM | 11.3 °C | > 9.1 | Active | 44.3 µM | > 50 µM | 36 µM | 36 µM | –
11 | COc1cc2c(cc1OC)-c1c(c(NCCCN3CCCC3)c3ccccc3[n+]1C)CC2 | 1.1 °C | > 20 µM | 10.7 °C | 0.3 °C | 4.7 °C | 3.3 µM | 14 °C | > 6.1 | Active | > 50 µM | 19.2 µM | > 50 µM | > 50 µM | –
12 | COc1cc2c(cc1OC)-c1nc3ccccc3c(NCCCN(C)C)c1CC2 | 1.3 °C | > 20 µM | 12.3 °C | 2.3 °C | 9 °C | 3.5 µM | 20.4 °C | > 5.7 | Active | 5.1 µM | 6.7 µM | 3.6 µM | 4.2 µM | –

Continued, in another order:

Row | ΔTm [1] | Kd [2] | ΔTm [4] | ΔTm [5] | ΔTm [6] | Kd [8] | ΔTm [11] | Selectivity ratio [12] | Activity [13] | SMILES | IC50 [3] | IC50 [7] | IC50 [9] | IC50 [10] | further results
13 | 0.3 °C | > 20 µM | 3.3 °C | 0.6 °C | 0.6 °C | 3.7 µM | 5.2 °C | > 5.4 | – | COc1cc2c(cc1OC)-c1nc3ccccc3c(C(=O)NCCCN3CCCCC3)c1CC2 | > 50 µM | > 50 µM | > 50 µM | > 50 µM | –
14 | 0.8 °C | > 20 µM | 6.7 °C | 0.3 °C | 2.8 °C | 8 µM | 7.4 °C | > 2.5 | Active | COc1cc2c(cc1OC)-c1c(c(NCCN(C)C)c3ccccc3[n+]1C)CC2 | > 50 µM | 33.5 µM | > 50 µM | > 50 µM | –
15 | 0.5 °C | > 20 µM | 3.4 °C | 0.5 °C | 0.6 °C | 2.8 µM | 6.6 °C | > 7.1 | – | CCN(CC)CCCNC(=O)c1c2c(nc3ccccc13)-c1cc(OC)c(OC)cc1CC2 | > 50 µM | > 50 µM | > 50 µM | > 50 µM | –
16 | 0.8 °C | > 20 µM | 8.6 °C | 0.3 °C | 3.7 °C | 5.8 µM | 10.7 °C | > 3.4 | Active | COc1cc2c(cc1OC)-c1c(c(NCCCN(C)C)c3ccccc3[n+]1C)CC2 | > 50 µM | > 50 µM | > 50 µM | > 50 µM | –
17 | 0.8 °C | 7.7 µM | 11.1 °C | 1.2 °C | 6.2 °C | 2.5 µM | 16.7 °C | 3.1 | Active | COc1cc2c(cc1OC)-c1nc3ccccc3c(NCCN3CCCC3)c1CC2 | 4.6 µM | 4.8 µM | 2.8 µM | 5.2 µM | –
18 | 1.7 °C | 17 µM | 17.4 °C | 2 °C | 9 °C | 3.3 µM | 22.6 °C | 5.2 | Active | COc1cc2c(cc1OC)-c1nc3ccccc3c(NCCN3CCN(C)CC3)c1CC2 | 5.3 µM | 22.9 µM | 3 µM | 7.9 µM | –
19 | 0.6 °C | 5.9 µM | 9.8 °C | 0.9 °C | 6.5 °C | 2.7 µM | 15.7 °C | 2.2 | Active | CCN(CC)CCNc1c2c(nc3ccccc13)-c1cc(OC)c(OC)cc1CC2 | 17.9 µM | 8 µM | 5.8 µM | 22.7 µM | –
20 | 0.7 °C | 9.4 µM | 12.1 °C | 0.9 °C | 6.7 °C | 4.2 µM | 16.4 °C | 2.2 | Active | COc1cc2c(cc1OC)-c1nc3ccccc3c(NCCN(C)C)c1CC2 | 11.7 µM | 25.8 µM | 5.6 µM | 19 µM | –
